# From patent US9446017B2, “Compositions and methods for treating herpes simplex virus” (Augusta University Research Institute, Inc., priority 2005, dated 2016)
# “And” between values parts separate entries of the source, which are not always exact repeats. Equal entries are not always repeated. Where two headings read alike, the source gives them in different places.
# Tests used:
# [1] = for a topical application; cited from earlier work
# [2] = system: HSV-1; conditions: cited from earlier work
# [3] = system: HSV-2; conditions: Vero cells; cited from earlier work
# [4] = system: HSV-1; conditions: antibodies against gB, gD, and a capsid protein; cited from earlier work
# [5] = system: HSV; assay: HSV plaque assays using Vero cells with and without EGCG (Example 1); format: cell-based; conditions: 100 μM applied
# Protocol: HSV plaque assays using Vero cells were conducted with and without the addition of epigallocatechin gallate (EGCG).
# [6] = Stability of the polyphenol (statements, no method); format: physicochemical; conditions: vaginal pH
# [7] = system: HSV1-UL46; assay: GFP expression study using a fluorometer; format: cell-based; conditions: 75 μM, virions treated 3 hours, cells 12 hrs
# Protocol: GFP expression was studied in Escherichia coli that contained GFP plasmid, and Escherichia coli without GFP plasmid. The fluorometer used was a Tuner Digital Fluorometer-Model 450. Samples were put into 3 mLs of H2O and serial dilutions were performed from the first 3 mLs of each sample. A standard dilution curve was obtained from the serial dilutions. Next, Vero cells were grown on T-75 flasks and allowed to reach confluence. HSV1 virions were treated for 3 hours with 75 μM of polyphenols prior to cell infection. Cells were then infected with treated and non-treated HSV1-UL46 and allowed to adsorb for 1 hour. Viruses that had not been absorbed were then removed by washing the cells twice with PBS. The cells were then incubated at 37° C. for 12 hrs. Cells were then trypsinized and pelleted. Finally, cells were resuspended with 3 mLs of H2O and analyzed for GFP expression using a fluorometer. 3 ml of water was used as the blank sample. The Gain knob was set to 1000 for higher fluorescence sensitivity.
# In this experiment, Vero cells only, HSV1/Vero cells, and 75 μM EGCG-ester-HSV1/Vero cells were used to quantitatively measure GFP expression.
Compound,stability [1],viral production ([2]; Vero cells treated following adsorption and entry of HSV-1),inhibition of HSV infection ([2]; Vero cells),inhibition of HSV infection [3],"drop in immunogold labeling, treated compared to untreated virions [4]",viral plaques [5],stability [6],GFP expression (fluorometer) compared to HSV1/Vero cells [7]
"O=C(O[C@@H]1Cc2c(O)cc(O)cc2O[C@@H]1c1cc(O)c(O)c(O)c1)c1cc(O)c(O)c(O)c1 [EGCG, (−)-epigallocatechin-3-gallate, reference compound]",highly unstable and oxidizes very quickly,does not inhibit the viral production,successfully inhibited HSV infection in a concentration dependent manner,successfully inhibited HSV infection in a concentration dependent manner,30% and 40%,no viral plaques were observed,–,–
CCCCCCCCCCCCCCCC(=O)Oc1c(O)cc([C@H]2Oc3cc(O)cc(O)c3C[C@H]2OC(=O)c2cc(O)c(O)c(O)c2)cc1O [EGCG-ester],–,–,–,–,–,–,stable at vaginal pH,much lower
